Results from US8993587B2, “Combination of syrosingopine and mitochondrial inhibitors for the treatment of cancer and immunosuppression” (Universitat Basel, priority 2011, dated 2015).
Where a name gives a salt, the structure may show the parent alone. Read-outs that look alike come from different tables or passages of the source.

Legend:
[1] = system: murine 6.5 cells (inner mitochondrial membrane potential); assay: Mitochondrial membrane potential by TMRM fluorescence assay; type: cell-based, mouse; settings: TMRM 100 nM 20 min, control peak 403, syrosingopine pre-incubation 4 h (highest amount), FCCP pre-treatment 1 h (FIG. 11)
Method: Murine 6.5 cells were treated with TMRM (panels 1-6), and in addition pre-incubated with FCCP (panel 2), syrosingopine at 0.1 μM (panel 3), 0.5 μM (panel 4), 2 μM (panel 5) or at 5 μM (panel 6) and fluorescence intensity was measured. Thin lines: fluorescence intensity of control cells or FCCP-treated cells (panel 2). Heavy lines indicate cells pre-incubated additionally with syrosingopine (panels 3-6). X-axis indicates fluorescence intensity, Y-axis indicates relative cell numbers.
Murine 6.5 cells were treated for 20 min with the potentiometric fluorescent dye TMRM (tetramethylrhodamine methyl ester, AbD Serotec, 100 nM) and the fluorescence intensity was measured at 575 nm emission after excitation at 488 nm using a flow cytometer (CellLabQuanta, Beckman Coulter). This dye accumulates in the mitochondrial matrix when the inner membrane potential is more positive outside due to the extrusion of protons. […] The effect of syrosingopine was assessed by pre-incubating cells with increasing concentrations of syrosingopine for 4 h as indicated, followed by TMRM staining.

mouse mast cell line 6.5 [2] = assay: AlamarBlue cell proliferation assay, mouse mast cell line 6.5; type: cell-based
Method: (§1) AlamarBlue conversion cell proliferation assay. […] All data points were performed in tripliclate.

mouse mast cell line 6.5 [3] = system: mouse mast cell line 6.5
cancer test cell lines = assay: Interaction of rauwolfia-related compounds with metformin; type: cell-based
Excerpt: 6.5 cells show many features of oncogenic transformation such as loss of growth-factor (IL3) dependence and signaling pathway addiction. […]. These cells display exquisite sensitivity to many clinical drugs. […].

OPM2 cells [4] = assay: AlamarBlue cell proliferation assay, OPM2; type: cell-based, human; settings: for growth inhibition, combined versus each compound singly: syrosingopine titration, metformin 5 mM, 3 days (FIG. 1B)
Method: as §1

HL60 cells = type: cell-based, human; settings: oligomycin at a concentration below 1 nM, 3 days (FIG. 10B)
Method: as §1

RPMI8226 cells [5] = assay: Apoptosis assay (annexin V / propidium iodide FACS), RPMI8226; type: cell-based, human; settings: 2 μM syrosingopine, 1 mM metformin, singly or combined, 3 days (FIG. 3)
Method: (§2) OPM2 and RPM18226 cells were seeded at a density of 100,000 cells/5 ml medium with addition of compounds. […] RPM18226: 2 μM syrosingopine (S), 1 mM metformin (M). […] Annexin V is an apoptotic marker and was detected using a FITC-coupled antibody on the FL1-channel. Propidium iodide (PI) exclusion staining for vital cells was detected simultaneously on the FL3-channel. For each measurement, the PI and annexin V negative cells represent the viable cell population (white bars). Early apoptotic cells are PI-negative, annexin V-positive (hatched bars) and late apoptotic cells are PI-positive, annexin V-positive (black bars). Bars are plotted on the Y-axis as a percentage of the total cell population.
(§3) Apoptosis was determined by Annexin V-FITC (Invitrogen) and propidium iodide counter-staining, and cells were analysed by FACS to distinguish between viable/early apoptotic/late apoptotic cell sub-populations. Cells were seeded at a density of 100,000 cells/5 ml medium with addition of compounds as indicated. 500 μl of culture was harvested after 3 days and the cells were washed and stained with PI/Annexin V before FACs analysis.

OPM2 cells [6] = assay: Apoptosis assay (annexin V / propidium iodide FACS), OPM2; type: cell-based, human; settings: 5 μM syrosingopine, 2 mM metformin, singly or combined, 3 days (FIG. 3)
Method: as §2, §3

[7] = system: 6.5 cell tumors in DBA mice; settings: mouse, in vivo
Method: Drug treatment commenced when tumors reached 100 mm^2 in size. Mice were separated into treatment groups and injected intra-peritoneally with PBS (horizontal bars), syrosingopine (S, filled diamonds, 2 mg/kg body weight), metformin (M, filled triangles, 250 mg/kg body weight) and metformin plus syrosingopine (S+M, crossed squares) daily for 15 days. Mice were sacrificed when tumor size became excessive (day 15) and tumors were dissected for measurement. (A) Chart showing tumor area (in mm^2) measured over the course of the treatment, d=days. (B) Mean body weight (g) of the mice at the time of sacrifice. Figures (n) above each bar indicate the number of mice per treatment group.
4×10^56.5 cells were injected in 150 μl of PBS into the flanks of immuno-compatible DBA mice. Tumor progression was monitored and treatment was started when tumor area reached 100 mm^2 in size. Mice were injected intra-peritoneally daily with metformin (250 mg/kg body weight), syrosingopine (2 mg/kg body weight) or combined for 15 days before being sacrificed for tumor tissue measurements.

Jurkat cells = assay: AlamarBlue cell proliferation assay, Jurkat; type: cell-based, human; settings: syrosingopine titration, metformin 5 mM, 3 days (FIG. 1D)
Method: as §1

RPMI8226 cells [8] = assay: AlamarBlue cell proliferation assay, RPMI8226; type: cell-based, human; settings: syrosingopine titration, metformin 5 mM, 3 days
Method: as §1

K562 cells = assay: AlamarBlue cell proliferation assay, K562; type: cell-based, human; settings: syrosingopine titration, metformin 5 mM, 3 days (FIG. 1E)
Method: as §1

[9] = system: human peripheral blood leukocytes; assay: Phytohaemagglutinin-stimulated T cell proliferation; type: cell-based; settings: PHA 10 μg/ml; day 3; syrosingopine titration with or without metformin 4 mM (FIG. 7, right)
Method: Human peripheral blood leukocytes were cultured in presence or absence of phytohaemagglutinin.
Normal human buffy coat cells were obtained from a local blood donation center in accordance with the ethical guidelines. 80 ml of blood was diluted with 200 ml of Iscove's medium and overlayed on a Ficoll gradient. The gradient was centrifuged at 1400×g for 5 minutes to separate the leukocyte fraction from erythrocytes. Cells were plated on coated tissue culture dishes for 1 hour to remove adherent cells, and the remaining suspension cells were collected by centrifugation and counted with a haemocytometer. 50,000 cells were seeded per well in 96-well dishes and compounds were added according to the various treatment regimes to a final medium volume of 150 μl. For stimulation, phytohemagglutinin was added to a final concentration of 10 μg/ml. At day 3, proliferation was determined by AlamarBlue assay.

[10] = 6.5 cells, agent at fixed, non- or minimally toxic concentration (FIG. 8) with increasing syrosingopine, 3 days

N#CC(C#N)=NNc1ccc(OC(F)(F)F)cc1 [FCCP, Carbonyl cyanide-p-trifluoromethoxyphenylhydrazone]
TMRM fluorescence peak [1]: 42 arbitrary units
synergistic killing with syrosingopine (mouse mast cell line 6.5 [2]): induced synergistic killing

N#CC(=C(/N)Sc1ccccc1N)/C(C#N)=C(\N)Sc1ccccc1N [U0126]
sensitivity of 6.5 cells to inhibitor (mouse mast cell line 6.5 [3]): sensitive to nanomolar concentrations

O=C(O)[C@@H]1[C@H]2C[C@H]3c4[nH]c5ccccc5c4CCN3C[C@@H]2CC[C@@H]1O [yohimbinic acid]
interaction with metformin (cancer test cell lines): do not show significant interaction

COC(=O)[C@H]1[C@H]2C[C@H]3c4[nH]c5ccccc5c4CCN3C[C@H]2CC[C@@H]1O [rauwolscine HCl]
interaction with metformin (cancer test cell lines): do not show significant interaction

Stavudine
synergistic killing with syrosingopine (mouse mast cell line 6.5 [2]; [10]): induced synergistic killing

CCCCCC[C@H]1C(=O)O[C@H](C)[C@H](NC(=O)c2cccc(NC=O)c2O)C(=O)O[C@@H](C)[C@@H]1OC(=O)CC(C)C [antimycin A, Antimycin A]
synergistic killing with syrosingopine (mouse mast cell line 6.5 [2]): Synergistic killing

COC(=O)[C@H]1[C@H]2C[C@@H]3c4[nH]c5cc(OC)ccc5c4CCN3C[C@H]2C[C@@H](OC(=O)c2cc(OC)c(OC)c(OC)c2)[C@@H]1OC [reserpine]
interaction with metformin (OPM2 cells [4]; OPM2 cells, reserpine over a range of concentrations, metformin 5 mM (FIG. 4)): No interaction
interaction with metformin (cancer test cell lines): do not show significant interaction
interaction with metformin (mouse mast cell line 6.5 [2]; 6.5 cells, reserpine over a range of concentrations, metformin 5 mM (FIG. 4)): No interaction

O=C([O-])CC(=O)[O-].[Na+].[Na+] [sodium malonate, Sodium malonate]
synergistic killing with syrosingopine (mouse mast cell line 6.5 [2]; [10]): Synergistic killing

COc1ccc2c3c([nH]c2c1)[C@H]1C[C@H]2[C@H](C[C@@H](O)[C@H](OC)[C@H]2C(=O)O)CN1CC3 [reserpinnic acid]
interaction with metformin (cancer test cell lines): do not show significant interaction

COC(=O)C1=CO[C@@H](C)[C@H]2CN3CCc4c([nH]c5ccccc45)[C@@H]3C[C@H]12 [ajmalicine]
interaction with metformin (cancer test cell lines): do not show significant interaction

CC[C@@H]1/C=C/C=C/C[C@H](C)C(O)[C@](C)(O)C(=O)[C@H](C)[C@@H](O)[C@H](C)C(=O)[C@H](C)[C@@H](O)[C@H](C)/C=C/C(=O)O[C@H]2[C@@H](C)[C@@H](CC1)O[C@@]1(CC[C@@H](C)[C@@H](C[C@H](C)O)O1)[C@@H]2C (stereo partly drawn) [oligomycin, Oligomycin]
killing in combination with syrosingopine (HL60 cells): kills human cancer lines
killing in combination with syrosingopine (OPM2 cells [4]; OPM2, oligomycin at a concentration below 1 nM, 3 days (FIG. 10C)): kills human cancer lines
toxicity of the mitochondrial inhibitor alone (mouse mast cell line 6.5 [2]; 6.5 cells, absence of syrosingopine, concentrations employed for synergistic killing, 3 days (FIG. 9)): without toxic effect
synergistic killing with syrosingopine (mouse mast cell line 6.5 [2]; [10]): induced synergistic cell killing

COC(=O)[C@@H]1[C@H]2C[C@H]3c4[nH]c5ccccc5c4CCN3C[C@@H]2CC[C@@H]1O [yohimbine HCl]
interaction with metformin (cancer test cell lines): do not show significant interaction

CN(C)C(=N)NC(=N)N [metformin, 3-(diaminomethylidene)-1,1-dimethylguanidine hydrochloride]
apoptotic induction (annexin V / PI) (RPMI8226 cells [5]): No apoptotic induction
apoptotic induction (annexin V / PI) (OPM2 cells [6]): No apoptotic induction
body weight at sacrifice [7]: no significant difference in body weight
growth inhibition, combined versus each compound singly (Jurkat cells): only a marginal effect
growth inhibition, combined versus each compound singly (OPM2 cells [4]; OPM2): only a marginal effect
growth inhibition, combined versus each compound singly (RPMI8226 cells [8]): only a marginal effect
growth inhibition, combined versus each compound singly (K562 cells): only a marginal effect
inhibition at 5000 µM (mouse mast cell line 6.5 [2]; Mus musculus, Mast cell, 72 h, 6.5 cells, metformin alone at 5 mM, 3 days (FIG. 1A), read-out: inhibition of growth): 20%

COC(=O)[C@H]1[C@H]2C[C@@H]3c4[nH]c5cc(OC)ccc5c4CCN3C[C@H]2C[C@@H](OC(=O)/C=C/c2cc(OC)c(OC)c(OC)c2)[C@@H]1OC [rescinnnamine]
interaction with metformin (cancer test cell lines): do not show significant interaction

CCOC(=O)Oc1c(OC)cc(C(=O)O[C@@H]2C[C@@H]3CN4CCc5c([nH]c6cc(OC)ccc56)[C@H]4C[C@@H]3[C@H](C(=O)OC)[C@H]2OC)cc1OC [syrosingopine]
apoptotic induction (annexin V / PI) (RPMI8226 cells [5]): No apoptotic induction
TMRM fluorescence peak [1]: 955 arbitrary units
apoptotic induction (annexin V / PI) (OPM2 cells [6]): No apoptotic induction
signs of overt toxicity ([7]; DBA): no significant difference in body weight between the treatment groups (FIG. 5B) or any signs of overt toxicity
body weight at sacrifice [7]: no significant difference in body weight
growth inhibition, combined versus each compound singly (Jurkat cells): only a marginal effect
inhibition of PHA-stimulated proliferation [9]: considerably less so
growth inhibition, combined versus each compound singly (OPM2 cells [4]; OPM2): only a marginal effect
growth inhibition, combined versus each compound singly (RPMI8226 cells [8]): only a marginal effect
growth inhibition, combined versus each compound singly (K562 cells): only a marginal effect
inhibition of growth, syrosingopine alone (mouse mast cell line 6.5 [2]; 6.5 cells, syrosingopine titration without metformin, 3 days (FIG. 1A)): virtually non-inhibitory

O=C(CC(=O)C(F)(F)F)c1cccs1 [TTFA, 2-Thenoyltrifluoroacetone]
synergistic killing with syrosingopine (mouse mast cell line 6.5 [2]; [10]): Synergistic killing

COC(=O)[C@H]1[C@H]2C[C@H]3c4[nH]c5ccccc5c4CCN3C[C@@H]2CC[C@@H]1O.Cl [corynanthine HCl]
interaction with metformin (cancer test cell lines): do not show significant interaction

N=C(N)NC(=N)NCCc1ccccc1 [phenformin, 1-(diaminomethylidene)-2-(2-phenylethyl)guanidine]
growth inhibition, phenformin alone (mouse mast cell line 6.5 [2]; 6.5 cells, concentrations up to 10 μM, 3 days (FIG. 6, left)): no growth inhibition
synergy with syrosingopine (mouse mast cell line 6.5 [2]; 6.5 cells, phenformin 10 μM combined with increasing concentrations of syrosingopine, 3 days (FIG. 6, right)): strong synergistic effect
